The values that follow come from US8986652B2, “Method of preparing [123I]iodooctyl fenbufen amide and application thereof” (National Tsing Hua University, priority 2012, dated 2015).

Where two headings read alike, the source gives them in different places.

The target of data set [1] is T1, COX-1 (Ovis aries, UniProt P05979).
T1 construct: purchased Cayman Chemical Ltd 760111
T1 sequence (P05979 25-600): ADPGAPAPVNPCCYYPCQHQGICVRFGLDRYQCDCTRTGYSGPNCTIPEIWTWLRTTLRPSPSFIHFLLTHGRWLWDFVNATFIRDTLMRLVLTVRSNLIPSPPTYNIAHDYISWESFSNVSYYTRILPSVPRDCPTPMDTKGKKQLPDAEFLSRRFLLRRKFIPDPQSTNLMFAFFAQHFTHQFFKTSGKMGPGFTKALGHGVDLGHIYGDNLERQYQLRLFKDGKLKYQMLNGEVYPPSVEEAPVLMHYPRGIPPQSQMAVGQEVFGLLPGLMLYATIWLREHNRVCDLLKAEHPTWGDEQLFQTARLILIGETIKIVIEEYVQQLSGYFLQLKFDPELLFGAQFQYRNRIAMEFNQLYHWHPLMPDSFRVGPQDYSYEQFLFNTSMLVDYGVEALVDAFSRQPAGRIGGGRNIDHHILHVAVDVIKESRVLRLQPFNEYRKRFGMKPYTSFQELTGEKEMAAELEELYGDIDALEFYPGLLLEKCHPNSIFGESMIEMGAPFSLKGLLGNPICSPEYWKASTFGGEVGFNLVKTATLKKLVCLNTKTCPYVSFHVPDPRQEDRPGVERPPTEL
The data set is described as follows: Colorimetric COX inhibitor screening assay (competitive inhibition of substrate transfer, CIST), COX-1. It counts as biochemical, ovine.

The next data set relates to rat liver tumor lesion. The conditions noted are these: cited from earlier work.
The target in data set [2] is T2, COX-2 (Ovis aries, UniProt P79208).
T2 construct: purchased Cayman Chemical Ltd 760111
T2 sequence (P79208 17-603): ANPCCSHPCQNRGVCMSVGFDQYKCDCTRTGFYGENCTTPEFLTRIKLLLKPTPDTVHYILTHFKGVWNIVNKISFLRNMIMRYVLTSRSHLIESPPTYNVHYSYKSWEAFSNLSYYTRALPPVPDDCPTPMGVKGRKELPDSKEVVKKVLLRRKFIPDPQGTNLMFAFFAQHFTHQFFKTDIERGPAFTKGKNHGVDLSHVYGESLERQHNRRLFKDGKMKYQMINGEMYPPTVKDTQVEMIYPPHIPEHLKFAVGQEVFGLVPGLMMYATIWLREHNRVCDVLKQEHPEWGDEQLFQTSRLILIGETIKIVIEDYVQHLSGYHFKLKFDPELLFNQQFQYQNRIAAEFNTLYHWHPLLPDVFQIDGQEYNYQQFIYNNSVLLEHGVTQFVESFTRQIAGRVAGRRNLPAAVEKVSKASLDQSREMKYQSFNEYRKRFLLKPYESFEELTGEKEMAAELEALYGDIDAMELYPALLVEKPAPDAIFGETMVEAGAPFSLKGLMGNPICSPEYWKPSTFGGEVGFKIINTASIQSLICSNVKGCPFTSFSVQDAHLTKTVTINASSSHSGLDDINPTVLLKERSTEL
Put plainly: Radioligand binding assay by gel filtration HPLC, COX-2. Also on record: species or system ovine. The conditions noted are these: for Binding yield (bound conjugate, accumulated radioactivity fraction) with COX-2: 25° C., 15 min incubation, peak at 5 min / (5 min + 13.6 min). Here is the method: (§1) The compound of formula 1 was purified by a set of HPLC consisting of the components of a Waters 510 pump, a linear UVIS detector (254 nm) in series with a Berthhold γ-flow detector, on a ZORBAX SIL column (250 mm×9.4 mm, 5 μm) at 3 mL/min with MeOH/CHCl3=1/99 as the mobile phase. Quality analysis of The compound of formula 1 was performed on the same HPLC setup as described above. The settings for radioactive ligand binding assay included a gel filtration column of TSKgel G3000PWx1 7.5×300 (mm) with a particle size of 10 μm which was purchased from Tosoh Bioscience LLC. The corresponding eluting conditions including PBS buffer and flow rate of 1 mL/min were employed throughout the experiment. The identity of The compound of formula 1 was confirmed with the compound of formula 2 on HPLC chromatogram after coinjection. The peak area of the UV absorbance at 254 nm that should correspond to the compound of formula 2 was calculated by interpolating to the standard curve relating mass to UV absorbance. Only a specific activity below 36 GBq/μmol can be measured accurately. Radioactive measurements were performed by a Capintec R15C dose calibrator.
(§2) The binding experiment was carried out in an eppendorf (0.2 mL) and stood for 10 min for equilibrium. An aliquot (10 μL) was drawn from the commercial stock solution (200 μL). Additional 30 μL of tris buffer (0.1 M, pH=8.0) was added. The solution (40 μL) of COX-1 or COX-2 each was added into a tris buffer (50 μL) together with the addition of a solution of the radiotracer the compound of formula 1 in EtOH with concentration ranging from 66 μCi/10 μL to 70 μCi/10 μL. The whole mixture (100 μL) was incubated at 25° C. for 15 min followed by submission to purification using HPLC. PBS buffer (0.1 M, pH=7.3) was employed as the eluent and the flow rate was set to be 1 mL/min.
(§3) The assay was based on that the retention time of the bound complex between radiolabeled ligand and enzyme was different from that of the unbound ligand in HPLC. […]
(In general: In gel filtration, larger molecules generally elute earlier.)

Data set [3] deals with thioacetamide-induced cholangiocarcinoma (CCA) rat. The data set is described as follows: SPECT/CT imaging in normal rat and thioacetamide-induced cholangiocarcinoma (CCA) rat. It counts as in vivo. As to conditions: tail vein. The procedure: All in vivo experiments were performed in compliance with the Taiwan National Health and Medical Research Council (NHMRC) Code of Practice for the care and use of animals for scientific purposes. Male-, Sprague-Dawley (SD) rats ([…]) were obtained from the Animal Research Center (Chang-Gung Memorial Hospital, Taiwan). Rats were housed under constant environmental conditions and were allowed free access to food and water throughout the experimental period. In vivo studies were performed in a thioacetamide-induced cholangiocarcinoma (CCA) rat (37th week post administration) along with a normal rat as a control.
The rats were anaesthetized via inhalant isoflurane (Forthane, Abott) in 200 mL/min oxygen during the imaging study. […]
The compound of formula 1 (0.76 mCi/1 mL) was administered by the CCA rat via tail vein injection to obtain a summation of one-hour Single Photon Emission Computer Tomography (SPECT) imaging data (FIG. 4(A)). The normal rat was injected with the residual radioactivity of the compound of formula 1 (1.39 mCi/1 mL) (FIG. 4 (B)). All in vivo experiments were performed in compliance with the NHMRC Taiwan Code of Practice for the care and use of animals for scientific purposes, and the raw data from the image further analyzed by Preclinical Multi-Modality Data Analysis software (PMOD Technologies Ltd, Zurich, Switzerland).

The target in data set [4] is T1, COX-1. The data set is described as follows: Radioligand binding assay by gel filtration HPLC, COX-1. Also on record: species or system ovine. The conditions noted are these: for Binding yield (bound conjugate, accumulated radioactivity fraction) with COX-1: 25° C., 15 min incubation, peak at 5 min / (5 min + 13.6 min). Here is the method:
as §1, §2, §3

Data set [5] deals with T2, COX-2. The data set is described as follows: Colorimetric COX inhibitor screening assay (competitive inhibition of substrate transfer, CIST), COX-2. It counts as biochemical. As to conditions: colorimetric COX (ovine) kit; read-out: IC50 value COX-2, this assay.
The target of data set [6] is T3, COX-2 (Homo sapiens, UniProt P35354).
T3 sequence (P35354 18-604): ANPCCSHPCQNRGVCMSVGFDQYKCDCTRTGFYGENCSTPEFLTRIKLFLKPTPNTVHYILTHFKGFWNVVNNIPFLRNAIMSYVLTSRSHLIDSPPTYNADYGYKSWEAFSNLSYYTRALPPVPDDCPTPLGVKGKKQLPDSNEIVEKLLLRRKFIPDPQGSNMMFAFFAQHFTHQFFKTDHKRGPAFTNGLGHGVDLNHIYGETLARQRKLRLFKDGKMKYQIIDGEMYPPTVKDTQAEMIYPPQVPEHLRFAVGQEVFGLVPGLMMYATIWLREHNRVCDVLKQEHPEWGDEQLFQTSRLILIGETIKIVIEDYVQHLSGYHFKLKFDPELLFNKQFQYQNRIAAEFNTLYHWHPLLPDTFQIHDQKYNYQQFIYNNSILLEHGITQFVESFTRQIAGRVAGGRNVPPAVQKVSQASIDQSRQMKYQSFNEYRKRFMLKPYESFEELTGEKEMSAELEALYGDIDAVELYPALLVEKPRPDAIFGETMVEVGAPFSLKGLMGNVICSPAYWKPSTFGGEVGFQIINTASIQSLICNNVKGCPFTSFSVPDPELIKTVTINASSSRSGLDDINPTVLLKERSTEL
The conditions noted are these: read-out: IC50 value COX-2, lit. data; literature data; cited from earlier work.

In data set [7] the target is COX-1 (Homo sapiens, UniProt P23219). As to conditions: read-out: IC50 value COX-1, lit. data; literature data; cited from earlier work.
COX-1 (Homo sapiens, UniProt P23219), sequence (P23219 24-599): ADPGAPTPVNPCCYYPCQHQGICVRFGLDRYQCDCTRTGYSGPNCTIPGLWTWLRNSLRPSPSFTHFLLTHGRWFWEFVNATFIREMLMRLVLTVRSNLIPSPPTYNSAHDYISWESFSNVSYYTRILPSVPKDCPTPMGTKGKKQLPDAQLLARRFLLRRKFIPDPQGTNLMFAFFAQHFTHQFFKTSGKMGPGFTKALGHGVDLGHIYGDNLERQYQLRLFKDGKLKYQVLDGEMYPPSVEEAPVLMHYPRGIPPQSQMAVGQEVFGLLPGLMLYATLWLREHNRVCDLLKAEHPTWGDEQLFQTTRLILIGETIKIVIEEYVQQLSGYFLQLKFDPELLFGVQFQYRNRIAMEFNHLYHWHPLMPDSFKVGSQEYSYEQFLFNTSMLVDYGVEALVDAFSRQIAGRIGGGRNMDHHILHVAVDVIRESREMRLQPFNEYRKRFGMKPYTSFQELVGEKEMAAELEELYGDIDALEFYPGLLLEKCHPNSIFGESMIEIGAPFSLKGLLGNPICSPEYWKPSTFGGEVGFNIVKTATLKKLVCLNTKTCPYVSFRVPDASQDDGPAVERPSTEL
The next data set concerns NO. As to conditions: antioxidant (e.g. NO) assay; cited from earlier work.
[8] abbreviates: colorimetric COX (ovine) kit, read-out: IC50 value COX-1, this assay.

Regarding `Oc1ccc(C=Cc2cc(O)cc(O)c2)cc1` [Resveratrol], the IC50 (usually the concentration at which inhibition is half-maximal) on COX-1 [1] was determined as 3.9 µM.
For `C=C(CC)C(=O)c1ccc(OCC(=O)NCCCC[18F])c(Cl)c1Cl` [[^18F]FBuEA, [^18F]-N-(4-fluorobutyl)ethacrynic amide], the “Image of tumor lesion” value in the data set with rat liver tumor lesion is “only shows the image of cold spot”.
On to `CCCCCCCCNC(=O)CCC(=O)c1ccc(-c2ccc([123I])cc2)cc1` [compound of formula 1, 4-(4′-[^123I]iodobiphenyl-4-yl)-N-octyl-4-oxobutanamide], for which, at COX-2 [2], the “Binding yield (bound conjugate, accumulated radioactivity fraction) with COX-2” value is given as 79%. For the same molecule, the “Intact (unbound) form remained, COX-2 binding experiment” value on COX-2 [2] (peak at 13.6 min) stood at 21%. The “In-vivo distribution of radioactivity, SPECT” value in data set [3] (CCA tumor rat, 0.76 mCi/1 mL) is “a heterogeneous radioactivity accumulation was addressed in the liver”; in data set [3] (normal rat, 1.39 mCi/1 mL, 30 mins post administration), “a homogeneous pattern, which was localized mainly in the liver and partly in the heart”. The “Binding yield (bound conjugate, accumulated radioactivity fraction) with COX-1” value at COX-1 [4] worked out at 56%. Moreover, the “Intact (unbound) form remained, COX-1 binding experiment” value at COX-1 [4] (peak at 13.6 min) worked out at 44%.
As to `CCCCCCCCNC(=O)CCC(=O)c1ccc(-c2ccc(I)cc2)cc1` [compound of formula 2, 4-(4′-iodobiphenyl-4-yl)-n-octyl-4-oxobutanamide], the melting point (as a rule, the temperature, or range, at which the solid turns liquid) was 181 to 182 °C. Besides, the IC50 at COX-2 [5] is above 10 µM. Further, the IC50 at COX-1 [1] (setting [8]) is above 10 µM. Also, at COX-2 [2], the “Binding yield (bound conjugate, accumulated radioactivity fraction) with COX-2” value was 76%. Further, the “Binding yield (bound conjugate, accumulated radioactivity fraction) with COX-1” value on COX-1 [4] came to 56%.
On to `O=C(O)CCC(=O)c1ccc(-c2ccccc2)cc1` [fenbufen], for which the IC50 at COX-2 [5] is above 10 µM; at COX-1 [1] (setting [8]) it was above 10 µM; at COX-2 [6], 8.1 µM; on COX-1 [7], 3.9 µM.
On to `O=c1ccn([C@@H]2O[C@H](CO)[C@@H](O)[C@H]2O)c(=O)[nH]1` [uridine], for which the IC50 at COX-2 [5] and at COX-1 [1] (setting [8]) was above 10 µM in each case.
Regarding Octyl fenbufen amide [OFA], the Anti inflammatory effect result in the data set with NO is on record as “marginal”.
